Results from publication PMC12367838, “Relevance of kinetic interactions and co-formulants for plant protection product liver toxicity in vitro” (Archives of Toxicology, 2025).

Assays:
Experiment in all cases: P450-Glo screening system, CYP inhibition
Format in all cases: biochemical
CYP2C9 = target: T1, CYP2C9 (Homo sapiens, UniProt P11712); details: recombinant human CYP, luciferin-H
T1 construct: purchased Promega
Text: (§1) The P450-Glo™ screening systems (Promega; Madison, Wisconsin, USA) were used in this study to explore the inhibitory properties of MDP on the major CYP isoforms involved in xenobiotic metabolism (CYP1A2, CYP2C9, CYP2C19, CYP2D6, and CYP3A4). HepaRG cells were not utilized in this assay to avoid potential cross reactivity since all CYP enzymes are expressed in this cell line. Therefore, this inhibition study relied on recombinant human CYP enzymes integrated in membrane preparation. The principle of the assay is based on the conversion of a luminogenic substrate (100 µM luciferin-ME for CYP1A2, 100 µM luciferin-H for CYP2C9, 50 µM luciferin-H EGE for CYP2C19, 30 µM luciferin-ME EGE for CYP2D6, and 100 µM luciferin-PPXE for CYP3A4) to luciferin by the respective enzyme. The assay was conducted according to the instructions of the supplier. Briefly, eight non-cytotoxic concentrations of MDP or a CYP selective inhibitor were preincubated for 10 min at 37 °C together with the luminogenic substrate, potassium phosphate buffer, and luciferin-free water, and the test compounds were added to white 96-well Costar® plates. After the preincubation, 25 µL of NADPH regeneration system (2.6 mM NADP + , 6.6 mM glucose-6-phosphate, 6.6 mM MgCl2, and 0.8 U/mL glucose-6-phosphate dehydrogenase) was added to each well to initiate CYP reactions. The plates were briefly shaken and taped before they were incubated at 37 °C for 10–30 min depending on the CYP enzyme under investigation. Luminescence of the luciferin product was initiated by adding 50 µL of the luciferin detection reagent. Subsequently, the plates were briefly shaken and then incubated for 20 min at room temperature in order to stabilize the luminescent signal. The luminescence was measured on the Infinite M200 PRO plate reader (Tecan; Männedorf, Switzerland). The measurements were corrected by subtracting the minus P450 control signals from each measurement and represented as changes in luminescence signals (ΔRLU). The ΔRLU values of MDP were compared with the ΔRLU values of the untreated samples and represented as relative changes in luminescence in relation to the control (%). Three independent experiments with three technical replicates were conducted (n = 3). Means and standard deviations for each treatment were calculated before calculating the IC50 values of MDP for each CYP enzyme.
(§2) A linear mixed-effects ANOVA (α = 0.05) described by Pinheiro and Bates ([2000]) followed by a post-hoc Dunnett test for multiple comparisons of treatment groups versus the control was used for statistical analysis of data from cytotoxicity assay, AdipoRed assay, CYP450 inhibition assay as well as mixture effects. R studio (ver. 4.4.1) was used to determine the effective concentration at relative triglyceride induction fold of 1.5 for each test compound.

CYP2D6 = target: T2, CYP2D6 (Homo sapiens, UniProt P10635); details: recombinant human CYP, luciferin-ME EGE
T2 construct: purchased Promega
T2 sequence (P10635 whole entry): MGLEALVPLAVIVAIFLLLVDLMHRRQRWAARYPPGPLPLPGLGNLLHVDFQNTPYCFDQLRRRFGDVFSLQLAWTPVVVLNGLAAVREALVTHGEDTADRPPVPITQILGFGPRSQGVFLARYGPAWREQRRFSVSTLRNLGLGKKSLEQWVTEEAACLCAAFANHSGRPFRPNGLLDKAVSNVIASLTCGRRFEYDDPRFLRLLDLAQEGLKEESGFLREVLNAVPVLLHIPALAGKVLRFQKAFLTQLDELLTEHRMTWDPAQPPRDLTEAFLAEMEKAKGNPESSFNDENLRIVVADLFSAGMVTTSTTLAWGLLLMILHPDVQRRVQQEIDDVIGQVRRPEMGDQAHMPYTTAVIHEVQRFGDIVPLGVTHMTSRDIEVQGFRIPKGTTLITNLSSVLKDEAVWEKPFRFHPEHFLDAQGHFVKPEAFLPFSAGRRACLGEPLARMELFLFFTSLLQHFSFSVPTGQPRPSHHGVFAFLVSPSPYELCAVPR
Text: as §1, §2

CYP3A4 = target: T3, CYP3A4 (Homo sapiens, UniProt P08684); details: recombinant human CYP, luciferin-PPXE
T3 construct: purchased Promega
T3 sequence (P08684 whole entry): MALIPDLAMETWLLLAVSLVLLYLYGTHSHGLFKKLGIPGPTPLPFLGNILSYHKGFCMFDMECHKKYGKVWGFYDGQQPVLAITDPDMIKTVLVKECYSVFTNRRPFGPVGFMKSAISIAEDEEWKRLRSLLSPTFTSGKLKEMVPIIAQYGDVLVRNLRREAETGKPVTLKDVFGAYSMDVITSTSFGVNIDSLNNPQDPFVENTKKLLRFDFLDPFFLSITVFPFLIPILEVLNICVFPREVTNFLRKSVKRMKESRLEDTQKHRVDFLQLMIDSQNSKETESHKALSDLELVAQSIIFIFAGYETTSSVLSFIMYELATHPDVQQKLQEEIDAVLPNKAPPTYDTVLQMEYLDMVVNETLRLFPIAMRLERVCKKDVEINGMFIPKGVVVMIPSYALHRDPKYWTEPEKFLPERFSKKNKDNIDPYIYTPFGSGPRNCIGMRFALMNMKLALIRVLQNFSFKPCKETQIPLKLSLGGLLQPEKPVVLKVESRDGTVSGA
Text: as §1, §2

CYP1A2 = target: T4, CYP1A2 (Homo sapiens, UniProt P05177); details: recombinant human CYP, luciferin-ME
T4 construct: purchased Promega
T4 sequence (P05177 1-516): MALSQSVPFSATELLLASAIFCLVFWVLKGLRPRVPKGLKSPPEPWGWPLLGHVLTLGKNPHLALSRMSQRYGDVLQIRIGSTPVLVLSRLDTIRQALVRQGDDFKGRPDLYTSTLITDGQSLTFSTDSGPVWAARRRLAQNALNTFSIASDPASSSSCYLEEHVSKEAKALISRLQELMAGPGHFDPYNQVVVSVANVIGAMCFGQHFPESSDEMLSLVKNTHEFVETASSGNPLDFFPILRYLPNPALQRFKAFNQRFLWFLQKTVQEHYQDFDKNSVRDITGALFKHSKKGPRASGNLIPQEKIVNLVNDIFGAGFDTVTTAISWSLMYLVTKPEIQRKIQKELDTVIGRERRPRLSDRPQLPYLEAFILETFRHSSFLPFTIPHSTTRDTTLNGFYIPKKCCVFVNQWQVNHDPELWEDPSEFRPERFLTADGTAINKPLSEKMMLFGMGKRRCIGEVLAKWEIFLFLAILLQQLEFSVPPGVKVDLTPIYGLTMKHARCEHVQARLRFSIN
Text: as §1, §2

CYP2C19 = target: T5, CYP2C19 (Homo sapiens, UniProt P33261); details: recombinant human CYP, luciferin-H EGE
T5 construct: purchased Promega
T5 sequence (P33261 whole entry): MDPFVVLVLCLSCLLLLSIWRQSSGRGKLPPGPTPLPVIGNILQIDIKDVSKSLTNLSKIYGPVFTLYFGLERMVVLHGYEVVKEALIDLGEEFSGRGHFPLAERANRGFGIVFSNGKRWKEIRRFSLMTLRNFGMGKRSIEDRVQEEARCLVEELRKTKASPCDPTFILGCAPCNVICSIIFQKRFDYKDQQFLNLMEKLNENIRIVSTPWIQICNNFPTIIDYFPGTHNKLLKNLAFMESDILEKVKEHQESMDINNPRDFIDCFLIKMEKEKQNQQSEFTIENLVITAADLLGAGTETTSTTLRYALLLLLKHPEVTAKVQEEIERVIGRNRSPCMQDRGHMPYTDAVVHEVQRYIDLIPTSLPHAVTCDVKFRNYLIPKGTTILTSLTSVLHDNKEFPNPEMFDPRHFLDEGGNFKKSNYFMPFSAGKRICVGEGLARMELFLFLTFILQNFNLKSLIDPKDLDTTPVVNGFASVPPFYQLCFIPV
Text: as §1, §2

T1 sequence (P11712 whole entry): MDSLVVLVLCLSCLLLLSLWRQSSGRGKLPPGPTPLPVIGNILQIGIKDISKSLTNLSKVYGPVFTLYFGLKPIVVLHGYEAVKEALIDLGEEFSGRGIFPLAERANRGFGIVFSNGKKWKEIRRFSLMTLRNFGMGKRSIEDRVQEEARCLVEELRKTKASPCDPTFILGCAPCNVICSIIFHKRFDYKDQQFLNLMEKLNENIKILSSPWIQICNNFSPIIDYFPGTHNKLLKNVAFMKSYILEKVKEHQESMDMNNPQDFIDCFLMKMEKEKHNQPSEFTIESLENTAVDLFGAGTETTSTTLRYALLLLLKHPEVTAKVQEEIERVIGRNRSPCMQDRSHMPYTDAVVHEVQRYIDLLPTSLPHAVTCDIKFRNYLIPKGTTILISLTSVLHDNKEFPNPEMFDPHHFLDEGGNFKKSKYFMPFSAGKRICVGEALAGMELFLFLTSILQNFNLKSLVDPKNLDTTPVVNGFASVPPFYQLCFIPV

C#CCOc1ccc(CCNC(=O)C(OCC#C)c2ccc(Cl)cc2)cc1OC (stereo not shown) [MDP, mandipropamid]
IC50 (CYP2C9): 1.18 µM
IC50 CYP2C9 (CYP2C9): 0.488 mg/L
IC50 (CYP2D6): 18.1 µM
IC50 CYP2D6 (CYP2D6): 7.47 mg/L
IC50 (CYP3A4): 1.32 µM
IC50 CYP3A4 (CYP3A4): 0.544 mg/L
IC50 (CYP1A2): 28.7 µM
IC50 CYP1A2 (CYP1A2): 11.8 mg/L
IC50 (CYP2C19): 0.824 µM
IC50 CYP2C19 (CYP2C19): 0.340 mg/L
